Columns and labels:
[1] = test system: Rhizoctonia solani; test: Microplate based assay of bioactivity against Rhizoctonia solani; assay type: cell-based; settings: 10 μl of 250 ppm solution + 40 μl inoculum, activity grade x repeats x days of activity/252 x 100
Method: Diluted in DMSO Licochalcone C was added to microplate wells and mixed with 50 μl of hyphae suspension and growth of the fungus, starting from blended hyphae, was monitored by plate reader and visual inspection. Inoculum Preparation of Rhizoctonia solani Hyphae: The concentration of the suspension should be 4×10^4 CFU/ml (diluted 10-fold concentration should be 4000 CFU/ml). Dilute the inoculum stock 1:20 in PDBC—1 ml in 20 ml, or calculate the dilution needed, to prepare final concentration of 2000 CFU/ml. The amount in each well should be about 100 CFU. […] Screening of Plates: • 1) Screen plate at […]: 3d, 7d, 14d and 21d following the assay start • 2) Calculate the difference of absorbance between each screen and the read at zero time • 3) Calculate the percentage of growth inhibition of each well at each time point. […]

[2] = test system: Pythium aphanidermatum; test: In-vivo validation under greenhouse conditions in cucumber seedlings infected with Pythium aphanidermatum; settings: preventative treatment 24 h before inoculation; 2 types of formulations; 100 to 400 ppm; evaluated 7 days after inoculation
Excerpt: FIGS. 1-8 show the effect of Licochalcone C (LIC) on cucumber seedlings survival in 8 independent experiments determined as percentage of disease severity 7 days following inoculation with Pythium aphanidermatum. FIGS. 9-11 show effect of Licochalcone C (LIC) on cucumber seedlings survival in 3 independent experiments determined as of disease severity 7 days following inoculation with Rhizoctonia solani. * means that p-value <0.05, ** means that p-value is <0.01, # means that p-value <0.1, n.s. means non-significant difference vs. non-treated plants. For formulation description used for Licochalcone C see Example 7.
To evaluate the effect of a Licochalcone C in infected plants compared to control plants (infected but not treated) the data was analysed by Student's t-test and the p-value is calculated. The minimum number of repeats in each experiment was 3. Results were considered significant if p<0.05. The data presented as mean with standard error mean from biological replicates. * means that p-value <0.05, ** means that p-value is <0.01, # means that p-value <0.1. […]
General description: Pythium aphanidermatum disease severity development was evaluated following preventative treatment by Licochalcone C (LIC) […]

COc1c(/C=C/C(=O)c2ccc(O)cc2)ccc(O)c1CC=C(C)C [Licochalcone C, (E)-3-[4-hydroxy-2-methoxy-3-(3-methylbut-2-enyl)phenyl]-1-(4-hydroxyphenyl)prop-2-en-1-one]
Relative Activity value (%) [1]: 100%
efficacy in preventing Pythium disease in cucumber seedling [2]: up to 100%

— patent US20240049707A1, “PESTICIDE COMPOSITIONS OF LICOCHALCONE C” (METABOLIC INSIGHTS LTD., priority 2020, published 2024)
